pKi: −log10 of the molar value.

The target in one assay is T1, Adenosine A2a receptor (Homo sapiens, UniProt P29274).
T1 construct: expressed in transfected cells; host or cells: CHO cell membranes
Description: Adenosine receptor TR-FRET binding assay, A2a. As to conditions: displacement of 100 nM CA200645, CHO cell membranes. The protocol:
(§1) All FRET binding experiments were conducted at room temperature in white 384-well plates, in assay binding buffer containing 1× LabMed (Cisbio, France), 100 μg/mL saponin, 1% DMSO and 0.02% pluronic acid. Binding of the fluorescently labelled Adenosine receptor antagonist XAC (CA200645, FRET acceptor) to terbium-labelled A1, A2a, A2b and A3 adenosine receptors (FRET donors) was detected by time-resolved FRET due to the close proximity of the donor and acceptor in a binding event. To investigate the ability of unlabelled test compounds to bind to Adenosine A1, A2a, A2b and A3 receptors, dose response curves were constructed that determined the ability of a range of concentrations to inhibit the binding of 30 nM CA200645 to the A2b receptor and 100 nM CA200645 to the A1, A2a, and A3 receptor.
(§2) Serial dilution (1:3 dilutions) of test compounds in neat DMSO and transfer of a 400 nL sample of test compound into the assay plate was carried out using the Mosquito (TTP Labtech, UK). The compound samples were incubated for 2 hours at room temperature with a fixed concentration of CA200645 defined for each receptor (see above) and CHO cell membranes containing the human Adenosine A1 (0.5 μg/well), A2a (0.3 μg/well), A2b (1 μg/well) or A3 (1 μg/well) receptor in 40 μL of assay buffer. Total and non-specific binding of CA200645 was determined in the absence and presence of 10 μM XAC, respectively.
(§3) Following 2 hours incubation, the level of CA200645 binding was detected on a Pherastar FSX (BMG Labtech, Germany) using standard TR-FRET settings. The terbium donor was excited with three laser flashes at a wavelength of 337 nm, and donor and acceptor emission was detected at 620 nm and 665 nm wavelengths, respectively. FRET ratios were obtained by multiplying the acceptor/donor ratio value by 10,000. Specific binding was determined by subtracting the non-specific binding FRET ratio from the total binding FRET ratio. Compound IC50 curves were analysed using GraphPad Prism 7.0 (GraphPad, USA) and Ki affinity values were determined from the obtained […] values using the method of Cheng and Prusoff.

A further assay deals with T2, Adenosine A2b receptor (Homo sapiens, UniProt P29275).
T2 construct: expressed in transfected cells; host or cells: CHO cell membranes
T2 sequence (P29275 1-332): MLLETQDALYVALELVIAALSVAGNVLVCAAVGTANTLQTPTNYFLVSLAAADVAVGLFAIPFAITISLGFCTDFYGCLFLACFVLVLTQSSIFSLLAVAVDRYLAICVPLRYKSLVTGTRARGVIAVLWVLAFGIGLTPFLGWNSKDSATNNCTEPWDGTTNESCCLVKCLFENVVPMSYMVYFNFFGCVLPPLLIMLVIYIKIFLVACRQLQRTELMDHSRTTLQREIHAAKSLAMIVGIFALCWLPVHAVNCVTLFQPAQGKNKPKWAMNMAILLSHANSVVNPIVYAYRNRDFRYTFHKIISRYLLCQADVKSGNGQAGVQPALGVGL
Description: Adenosine receptor TR-FRET binding assay, A2b. As to conditions: Table 9, further testing; displacement of 30 nM CA200645, CHO cell membranes. The protocol: as §1, §2, §3

A further assay addresses T3, Adenosine A1 receptor (Homo sapiens, UniProt P30542).
T3 construct: expressed in transfected cells; host or cells: CHO cell membranes
T3 sequence (P30542 1-326): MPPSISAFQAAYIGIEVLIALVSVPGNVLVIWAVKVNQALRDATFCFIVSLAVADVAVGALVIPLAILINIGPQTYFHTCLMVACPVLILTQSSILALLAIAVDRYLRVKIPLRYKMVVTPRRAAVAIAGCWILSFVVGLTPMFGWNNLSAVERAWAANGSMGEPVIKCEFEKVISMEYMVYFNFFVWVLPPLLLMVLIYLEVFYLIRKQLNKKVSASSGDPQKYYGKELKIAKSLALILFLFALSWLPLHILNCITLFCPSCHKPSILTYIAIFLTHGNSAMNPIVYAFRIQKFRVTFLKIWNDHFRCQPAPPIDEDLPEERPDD
Description: Adenosine receptor TR-FRET binding assay, A1. Conditions: Table 9, further testing; displacement of 100 nM CA200645, CHO cell membranes. The protocol: as §1, §2, §3
A general note: Time-resolved FRET reads energy transfer from a long-lived donor to a nearby acceptor.

T1 sequence (P29274 whole entry): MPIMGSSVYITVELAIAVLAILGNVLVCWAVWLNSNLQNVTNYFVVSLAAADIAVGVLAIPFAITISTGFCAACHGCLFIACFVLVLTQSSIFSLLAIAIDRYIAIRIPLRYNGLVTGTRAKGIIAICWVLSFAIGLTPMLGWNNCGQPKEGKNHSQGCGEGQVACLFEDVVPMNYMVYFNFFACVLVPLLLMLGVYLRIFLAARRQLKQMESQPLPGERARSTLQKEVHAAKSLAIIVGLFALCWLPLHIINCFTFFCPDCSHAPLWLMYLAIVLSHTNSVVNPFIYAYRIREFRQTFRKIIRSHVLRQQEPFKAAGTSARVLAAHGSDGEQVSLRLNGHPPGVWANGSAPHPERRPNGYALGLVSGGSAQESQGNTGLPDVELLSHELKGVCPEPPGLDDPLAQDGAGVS

Take `Nc1nc(-c2cccc(F)c2)ncc1C(=O)NCc1ccccc1` [Example 4, 4-Amino-N-benzyl-2-(3-fluorophenyl)pyrimidine-5-carboxamide]: the pKi (in general, the Ki on a negative log10 scale, so that one unit is a factor of ten) at Adenosine A2a receptor (Table 8, Cheng and Prusoff) is 7.13; at Adenosine A2a receptor (Table 9, further testing), 7.12; on Adenosine A2b receptor it was 5.92.
As for `Nc1nc(-c2cccc(F)c2)ncc1C(=O)NCCc1ccccc1` [Example 4.1, 4-Amino-2-(3-fluorophenyl)-N-(2-phenylethyl)pyrimidine-5-carboxamide], the negative logarithm of the Ki (pKi) on Adenosine A2a receptor (Table 8, Cheng and Prusoff) is 6.85; on Adenosine A2a receptor (Table 9, further testing), 6.85; on Adenosine A2b receptor, 5.76.
On to `Nc1nc(-c2cccc(F)c2)ncc1C(=O)Nc1ccccc1` [Example 4.2, 4-Amino-2-(3-fluorophenyl)-N-phenyl-pyrimidine-5-carboxamide], for which the pKi at Adenosine A2a receptor (Table 8, Cheng and Prusoff) was 6.95; at Adenosine A2a receptor (Table 9, further testing) it was 6.95; on Adenosine A2b receptor, 5.09.
As to `Nc1nc(-c2cccc(F)c2)ncc1C(=O)NCc1ccccc1F` [Example 5.1, 4-Amino-2-(3-fluorophenyl)-N-[(2-fluorophenyl)methyl]pyrimidine-5-carboxamide], the pKi is 7.05 on Adenosine A2a receptor (Table 8, Cheng and Prusoff); 7.05 at Adenosine A2a receptor (Table 9, further testing); 6.76 at Adenosine A2b receptor.
For `Nc1nc(-c2cccc(F)c2)ncc1C(=O)NCc1c(F)cccc1F` [Example 5.4, 4-Amino-N-[(2,6-difluorophenyl)methyl]-2-(3-fluorophenyl)pyrimidine-5-carboxamide], the pKi on Adenosine A2a receptor (Table 8, Cheng and Prusoff) was 7.30; on Adenosine A2a receptor (Table 9, further testing), 7.30; at Adenosine A2b receptor it was 6.86.
`Nc1nc(-c2cccc(F)c2)ncc1C(=O)NCc1ncccc1C(F)(F)F` [Example 5.6, 4-Amino-2-(3-fluorophenyl)-N-[[3-(trifluoromethyl)-2-pyridyl]methyl]pyrimidine-5-carboxamide]: the pKi on Adenosine A2a receptor (Table 8, Cheng and Prusoff) is 7.54; at Adenosine A2a receptor (Table 9, further testing), 7.54; on Adenosine A2b receptor, 6.21.
`Nc1nc(-c2cccc(F)c2)ncc1C(=O)NCCc1ccc(O)cc1` [Example 5.7, 4-Amino-2-(3-fluorophenyl)-N-[2-(4-hydroxyphenyl)ethyl]pyrimidine-5-carboxamide]: the pKi on Adenosine A2a receptor (Table 8, Cheng and Prusoff) was 6.30; at Adenosine A2a receptor (Table 9, further testing) it was 6.30; at Adenosine A2b receptor it was 5.49.
Consider `CCOc1cccnc1CNC(=O)c1cnc(-c2cccc(F)c2)nc1N` [Example 5.8, 4-Amino-N-[(3-ethoxy-2-pyridyl)methyl]-2-(3-fluorophenyl)pyrimidine-5-carboxamide], for which the pKi was 7.68 on Adenosine A2a receptor (Table 8, Cheng and Prusoff); 7.68 on Adenosine A2a receptor (Table 9, further testing); 6.17 at Adenosine A2b receptor.
For the compound `Nc1nc(-c2cccc(F)c2)ncc1C(=O)NCc1ccccn1` [Example 5.9, 4-Amino-2-(3-fluorophenyl)-N-(2-pyridylmethyl)pyrimidine-5-carboxamide], the pKi on Adenosine A2a receptor (Table 8, Cheng and Prusoff) is 7.12; on Adenosine A2a receptor (Table 9, further testing), 7.12; at Adenosine A2b receptor, 6.71.
Turning to `Cc1ccccc1CNC(=O)c1cnc(-c2cccc(F)c2)nc1N` [Example 5.10, 4-Amino-2-(3-fluorophenyl)-N-(o-tolylmethyl)pyrimidine-5-carboxamide], the negative-log Ki (pKi) was 6.82 on Adenosine A2a receptor (Table 8, Cheng and Prusoff); 6.82 at Adenosine A2a receptor (Table 9, further testing); 5.00 at Adenosine A2b receptor.
For `CN(Cc1ccccc1)C(=O)c1cnc(-c2ccco2)nc1N` [Example 5.22], the negative-log Ki (pKi) on Adenosine A2a receptor (Table 8, Cheng and Prusoff) is 6.06; on Adenosine A2a receptor (Table 9, further testing) it was 6.06; at Adenosine A1 receptor, 5.37.
As for `CC(C)n1ncnc1CNC(=O)c1cnc(-c2ccco2)nc1N` [Example 5.27, 4-Amino-2-(2-furyl)-N-[(2-isopropyl-1,2,4-triazol-3-yl)methyl]pyrimidine-5-carboxamide], the negative-log Ki (pKi) is 7.77 on Adenosine A2a receptor (Table 8, Cheng and Prusoff); 7.77 on Adenosine A2a receptor (Table 9, further testing); 5.57 on Adenosine A1 receptor.
On to `COc1cccc(OC)c1CNC(=O)c1cnc(-c2ccco2)nc1N` [Example 5.31, 4-Amino-N-[(2,6-dimethoxyphenyl)methyl]-2-(2-furyl)pyrimidine-5-carboxamide], for which the pKi on Adenosine A2a receptor (Table 9, further testing) is 8.92; at Adenosine A2b receptor, 5.37; at Adenosine A1 receptor, 5.82.
Turning to `CC(C)n1ccnc1CNC(=O)c1cnc(-c2ccco2)nc1N` [Example 5.33, 4-Amino-2-(2-furyl)-N-[(1-isopropylimidazol-2-yl)methyl]pyrimidine-5-carboxamide], the pKi was 8.03 at Adenosine A2a receptor (Table 9, further testing) and 5.18 on Adenosine A2b receptor.
As to `Nc1nc(-c2ccco2)ncc1C(=O)NCc1cc2ccccc2cn1` [Example 5.36, 4-Amino-2-(2-furyl)-N-(3-isoquinolylmethyl) pyrimidine-5-carboxamide], the pKi at Adenosine A2a receptor (Table 9, further testing) is 7.85; on Adenosine A2b receptor it was 6.01; at Adenosine A1 receptor, 5.57.
In the case of `Cn1ccnc1CNC(=O)c1cnc(-c2ccco2)nc1N` [Example 5.37, 4-Amino-2-(2-furyl)-N-[(1-methylimidazol-2-yl)methyl]pyrimidine-5-carboxamide], the negative-log Ki (pKi) at Adenosine A2a receptor (Table 9, further testing) was 7.80; at Adenosine A2b receptor, 5.80.
The corresponding values for `COc1cccc(CNC(=O)c2cnc(-c3ccco3)nc2N)c1OC` [Example 5.38, 4-Amino-N-[(2,3-dimethoxyphenyl)methyl]-2-(2-furyl)pyrimidine-5-carboxamide] are 7.70 and 5.63.
With `Nc1nc(-c2ccco2)ncc1C(=O)NCc1ccc2cnccc2c1` [Example 5.47, 4-Amino-2-(2-furyl)-N-(6-isoquinolylmethyl) pyrimidine-5-carboxamide], the negative-log Ki (pKi) is 6.64 at Adenosine A2a receptor (Table 9, further testing) and 5.32 on Adenosine A1 receptor.
Take `Nc1nc(-c2ccco2)ncc1C(=O)NCc1ncccn1` [Example 5.58, 4-Amino-2-(2-furyl)-N-(pyrimidin-2-ylmethyl)pyrimidine-5-carboxamide]: the pKi was 6.98 on Adenosine A2a receptor (Table 9, further testing) and 5.67 at Adenosine A2b receptor.
As to `COc1cccc(CNC(=O)c2cnc(-c3cccc(F)c3)nc2N)c1OC` [Example 10.10, 4-Amino-N-[(2,3-dimethoxyphenyl)methyl]-2-(3-fluorophenyl)pyrimidine-5-carboxamide], the negative-log Ki (pKi) on Adenosine A2a receptor (Table 8, Cheng and Prusoff) was 7.02; on Adenosine A2a receptor (Table 9, further testing) it was 7.02; at Adenosine A2b receptor it was 6.42.
Take `Cc1ccc(CNC(=O)c2cnc(-c3ccco3)nc2N)cc1` [Example 11.1, 4-Amino-2-(2-furyl)-N-(p-tolylmethyl)pyrimidine-5-carboxamide]: the pKi at Adenosine A2a receptor (Table 8, Cheng and Prusoff) was 7.51; at Adenosine A2a receptor (Table 9, further testing), 7.51; at Adenosine A1 receptor, 5.62.
On to `Cc1cccnc1CNC(=O)c1cnc(-c2ncco2)nc1N` [Example 16, 4-Amino-N-[(3-methyl-2-pyridyl)methyl]-2-oxazol-2-yl-pyrimidine-5-carboxamide], for which the pKi is 7.47 at Adenosine A2a receptor (Table 8, Cheng and Prusoff); 7.47 at Adenosine A2a receptor (Table 9, further testing); 5.25 at Adenosine A1 receptor.
Consider `Cc1cccnc1CNC(=O)c1cnc(-c2nccs2)nc1N` [Example 16.1, 4-Amino-N-[(3-methyl-2-pyridyl)methyl]-2-thiazol-2-yl-pyrimidine-5-carboxamide], for which the pKi at Adenosine A2a receptor (Table 9, further testing) was 7.40; at Adenosine A2b receptor, 5.14.
In the case of `CC(=O)NCCNc1nc(-c2ccco2)nc(N)c1C(=O)NCc1ncccc1C` [Example 22, 4-(2-Acetamidoethylamino)-6-amino-2-(2-furyl)-N-[(3-methyl-2-pyridyl)methyl]pyrimidine-5-carboxamide], the pKi on Adenosine A2a receptor (Table 9, further testing) was 8.17; on Adenosine A1 receptor, 6.22.
The like results for `Cc1cccnc1CNC(=O)c1c(N)nc(-c2ccco2)nc1OCCC1CCCCN1` (stereo not shown) [Example 23, 4-Amino-2-(2-furyl)-N-[(3-methyl-2-pyridyl)methyl]-6-[2-(2-piperidyl)ethoxy]pyrimidine-5-carboxamide] were, in that order, 6.06 and 5.07.

For the origin of these results see patent US20200339548A1, “PYRIMIDINE DERIVATIVES AND THEIR USE FOR THE TREATMENT OF CANCER” (Adorx Therapeutics Limited, priority 2017, published 2020).
